According to patent US8138304B2, “Neural regeneration peptides and formulations thereof” (Neuren Pharmaceuticals Limited, priority 2005, dated 2012):
Where no end group is shown, it is not given here.

How the values were obtained:
[1] = tested on: human primary trophoblasts; assay: Trophoblast haptotactic migration (Boyden chamber) assay; assay type: cell-based; settings: 0.1 ng/ml coating, 100 fM in inserts; 22 hrs
Method: Human trophoblast cells were isolated from term placentas with prior approval by the Ethics Committee of the University of Auckland and consent of the patients. The maternal decidua was removed, exposing the villous interior of the placenta. Pieces of villous tissue were cut out and washed thoroughly with PBS before digestion using 0.25% trypsin. The digest was then diluted in Locke Ringers Buffer and DNAase I. Digestion of connective tissue surrounding the placental cells was carried out while stirring the mixture with a magnetic stirrer at a temperature of 37° C. The process was repeated 8 times, with the last 6 supernatants being collected in a bottle containing fetal bovine serum (FBS). The digestion step produced a heterogeneous dispersed cell preparation. The pooled supernates was centrifuged for 7 minutes at 1200 rpm. The cell pellet was resuspended in PBS and centrifuged. […]
Cells were then purified using a percoll gradient (5, 20, 30, 35, 40, 50 and 60%). […] This band was collected, the cells washed in M199 medium centrifuged and finally counted and plated according to the methods of Keelan et al, 1998. […]
Under control conditions, the bottom of the chamber is not pre-coated with a putative chemoattractive agent. […] Thus, the number of migratory cells can be quantified. […]

cerebellar microexplants = assay: Cerebellar microexplant survival assay (3-NP/glutamate injury); assay type: cell-based, Wistar rat; settings: 100 fM; administered simultaneously with toxins (0.5 mM 3-NP, 0.5 mM glutamate), severe injury
Method: Laminated cerebellar cortices of the two hemispheres were explanted from a P3, P4, P7 or P8 Wistar rat, cut into small pieces in GBSS with 0.65% D(+)glucose solution, and triturated by a 0.4 mm gauge needle and subsequently pressed through a 125 μm pore size sieve. The obtained microexplants were centrifuged (60×g) 2 times for a medium exchange into serum-free BSA-supplemented START V-medium (Biochrom). Finally, the microexplants were reconstituted in 500 μl STARTV-medium. For culturing, 38 μl of the cell suspension was incubated for 1 hour on a poly-D-lysine-coated cover slip in a 35 mm Petri dish under an atmosphere comprising 5% CO2 in air and 100% humidity at 34° C. Subsequently, the injuring toxins (as described below), NRPs and 1 ml of STARTV-medium were added, and the cultures were evaluated after 2-3 days of culture.
Toxicological and drug administration experiments were designed such that 1/100 parts of toxin and neuroprotective drug were administered simultaneously to the freshly prepared cerebellar microexplants. […]
For statistical analysis of survival, four fields (each field having an area of 0.65 mm^2) of each fixed cerebellar culture with the highest cell densities were chosen, and cells displaying neurite outgrowth were counted (survival assay).

JAr cells = assay: TNF-alpha-induced cytotoxicity in immortalized trophoblast cell line; assay type: cell-based, human
Method: Choriocarcinoma cells (Jeg-3, BeWo and Jar; ATCC) were cultured under similar conditions in DMEM/F-12 cell culture medium in 75 cm2 flasks with filter tops (Raylab). Cells were allowed to adhere and grow in an incubator equilibrated in 95%/5% air/CO2 to approximately 70% confluence, before being split every 2 to 3 days by addition of 2 ml of 1× concentrated trypsin-EDTA. After a centrifugation step for 5 min at 1100 rpm, cells were resuspended in 15 ml of fresh DMEM/F-12 in sterile tissue flasks and placed back in the incubator.
In this study, we plated 50,000 JAr cells per well. JAr cells are an immortalized line of cells derived from a human choriocarcinoma cells. Wells were pre-incubated with NRP-5RG D6A (SEQ ID NO: 1) at the concentrations indicated in FIG. 12, or epidermal growth factor (EGF; 5 ng/ml) for 2 hours. Subsequently, cells were exposed to the cultures for 48 hours to TNF-alpha (5 ng/ml) and interferon-gamma (5 ng/ml) to induce stress.

REGRRAAPGRAGG-NH2 (listed as Homo sapiens) [SEQ ID NO: 1, 13-mer NRP analogue]
increase of migratory cells [1]: 95% | survival rates, neuroprotection (cerebellar microexplants): 39.1% | rescue effect at further increased concentration (JAr cells; 1 nM): reduced rescue effect | concentration at which a significant rescue effect was observed (JAr cells; 2 hours pre-incubation, TNF-alpha 5 ng/ml and interferon-gamma 5 ng/ml, 48 hours): 10 fM
